Test results: US7767659B2, “Synthesis of naturally occurring ecteinascidins and related compounds” (Pharma Mar, S.A., priority 2002, dated 2010)

How the values were obtained:
A-549 = assay: cells; settings: Homo sapiens, A549, 48 h; for GI50: read-out: A549 GI50; for CC50: read-out: A549 LC50; for IC (TGI): read-out: A549 TGI
How it was run: (§1)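 Colorimetric SRB read (490 nm) on triplicate wells after 48 h at 37 °C, 5% CO2. Dose range 10 to 10^−8 μg/ml; 5×10^3 cells/well pre-attached 18 h.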

HT-29 = assay: cells; settings: Homo sapiens, HT-29, 48 h; for GI50: read-out: HT29 GI50; for CC50: read-out: HT29 LC50; for IC (TGI): read-out: HT29 TGI
How it was run: as §1

LoVo = assay: cells; settings: Homo sapiens, LoVo, 48 h; for GI50: read-out: LOVO GI50; for CC50: read-out: LOVO LC50; for IC (TGI): read-out: LOVO TGI
How it was run: as §1

LNCaP = assay: Inhibition of cells growth by colorimetric assay (SRB); settings: Homo sapiens, LNCaP, 48 h; for GI50: read-out: LNCAP GI50; for CC50: read-out: LNCAP LC50; for IC (TGI): read-out: LNCAP TGI
How it was run: as §1

SK-BR-3 = assay: as above; settings: Homo sapiens, SK-BR-3, 48 h; for GI50: read-out: SK-BR3 GI50; for CC50: read-out: SK-BR3 LC50; for IC (TGI): read-out: SK-BR3 TGI
How it was run: as §1

IGROV-ET = assay: as above; settings: Homo sapiens, 48 h; for GI50: read-out: IGROV-ET GI50; for CC50: read-out: IGROV-ET LC50; for IC (TGI): read-out: IGROV-ET TGI
How it was run: as §1

HeLa = assay: as above; settings: Homo sapiens, HeLa, 48 h; for GI50: read-out: HELA GI50; for CC50: read-out: HELA LC50; for IC (TGI): read-out: HELA TGI
How it was run: as §1

K-562 = assay: as above; settings: Homo sapiens, K562, 48 h; for GI50: read-out: K562 GI50; for CC50: read-out: K562 LC50; for IC (TGI): read-out: K562 TGI
How it was run: as §1

PANC-1 = assay: as above; settings: Homo sapiens, PANC-1, 48 h; for GI50: read-out: PANC-1 GI50; for CC50: read-out: PANC-1 LC50; for IC (TGI): read-out: PANC-1 TGI
How it was run: as §1

LoVo-Dox = assay: as above; settings: Homo sapiens, 48 h; for GI50: read-out: LOVO-DOX GI50; for CC50: read-out: LOVO-DOX LC50; for IC (TGI): read-out: LOVO-DOX TGI
How it was run: as §1

DU-145 = assay: as above; settings: Homo sapiens, DU-145, 48 h; for GI50: read-out: DU145 GI50; for CC50: read-out: DU145 LC50; for IC (TGI): read-out: DU145 TGI
How it was run: as §1

HeLa-APL = assay: as above; settings: Homo sapiens, 48 h; for GI50: read-out: HELA-APL GI50; for CC50: read-out: HELA-APL LC50; for IC (TGI): read-out: HELA-APL TGI
How it was run: as §1

IGROV-1 = assay: as above; settings: Homo sapiens, IGROV-1, 48 h; for GI50: read-out: IGROV GI50; for CC50: read-out: IGROV LC50; for IC (TGI): read-out: IGROV TGI
How it was run: as §1

SK-MEL-28 = assay: as above; settings: Homo sapiens, SK-MEL-28, 48 h; for GI50: read-out: MEL-28 GI50; for CC50: read-out: MEL-28 LC50; for IC (TGI): read-out: MEL-28 TGI
How it was run: as §1

Structure (SMILES): COc1cc2c(cc1O)CCN[C@]21CS[C@@H]2c3c(OC(=O)/C=C/c4ccccc4)c(C)c4c(c3[C@H](COC1=O)N1C2[C@@H]2N[C@@H](Cc3cc(C)c(OC)c(O)c32)[C@@H]1O)OCO4 (stereo partly drawn) [compound 53]
- GI50 (A-549): 3.34 nM
- CC50 (A-549): 2210 nM
- IC (TGI) (A-549): 8.17 nM
- GI50 (HT-29): 4.33 nM
- CC50 (HT-29): 2740 nM
- IC (TGI) (HT-29): 18.3 nM
- GI50 (LoVo): 3.82 nM
- CC50 (LoVo): 2940 nM
- IC (TGI) (LoVo): 8.54 nM
- GI50 (LNCaP): 1.87 nM
- CC50 (LNCaP): 8.33 nM
- IC (TGI) (LNCaP): 3.95 nM
- GI50 (SK-BR-3): 2.95 nM
- CC50 (SK-BR-3): 1820 nM
- IC (TGI) (SK-BR-3): 29.9 nM
- GI50 (IGROV-ET): 10.2 nM
- CC50 (IGROV-ET): 6450 nM
- IC (TGI) (IGROV-ET): 1400 nM
- GI50 (HeLa): 3.12 nM
- CC50 (HeLa): 83.9 nM
- IC (TGI) (HeLa): 7.55 nM
- GI50 (K-562): 1.54 nM
- CC50 (K-562): 583 nM
- IC (TGI) (K-562): 13 nM
- GI50 (PANC-1): 3.36 nM
- CC50 (PANC-1): 1440 nM
- IC (TGI) (PANC-1): 10.1 nM
- GI50 (LoVo-Dox): 57.9 nM
- CC50 (LoVo-Dox): 5240 nM
- IC (TGI) (LoVo-Dox): 1450 nM
- GI50 (DU-145): 3.58 nM
- CC50 (DU-145): 3040 nM
- IC (TGI) (DU-145): 24.3 nM
- GI50 (HeLa-APL): 2.99 nM
- CC50 (HeLa-APL): 38.9 nM
- IC (TGI) (HeLa-APL): 12.2 nM
- GI50 (IGROV-1): 2.74 nM
- CC50 (IGROV-1): 2740 nM
- IC (TGI) (IGROV-1): 6.72 nM
- GI50 (SK-MEL-28): 2.21 nM
- CC50 (SK-MEL-28): 7.2 nM
- IC (TGI) (SK-MEL-28): 4 nM

Structure (SMILES): CCCCCCCC(=O)Oc1c(C)c2c(c3c1[C@H]1SC[C@]4(NCCc5cc(O)c(OC)cc54)C(=O)OC[C@@H]3N3C1[C@@H]1N[C@@H](Cc4cc(C)c(OC)c(O)c41)[C@@H]3O)OCO2 (stereo partly drawn) [compound 54]
- GI50 (A-549): 20.2 nM
- CC50 (A-549): 636 nM
- IC (TGI) (A-549): 66.3 nM
- GI50 (HT-29): 29.9 nM
- CC50 (HT-29): 12000 nM
- IC (TGI) (HT-29): 123 nM
- GI50 (LoVo): 3.85 nM
- CC50 (LoVo): 12000 nM
- IC (TGI) (LoVo): 14.4 nM
- GI50 (LNCaP): 7.42 nM
- CC50 (LNCaP): 109 nM
- IC (TGI) (LNCaP): 29.3 nM
- GI50 (SK-BR-3): 12.7 nM
- CC50 (SK-BR-3): 12000 nM
- IC (TGI) (SK-BR-3): 154 nM
- GI50 (IGROV-ET): 37 nM
- CC50 (IGROV-ET): 12000 nM
- IC (TGI) (IGROV-ET): 120 nM
- GI50 (HeLa): 21.9 nM
- CC50 (HeLa): 376 nM
- IC (TGI) (HeLa): 64.1 nM
- GI50 (K-562): 1.88 nM
- CC50 (K-562): 2700 nM
- IC (TGI) (K-562): 5.18 nM
- GI50 (PANC-1): 23 nM
- CC50 (PANC-1): 5310 nM
- IC (TGI) (PANC-1): 64.8 nM
- GI50 (LoVo-Dox): 338 nM
- CC50 (LoVo-Dox): 12000 nM
- IC (TGI) (LoVo-Dox): 12000 nM
- GI50 (DU-145): 3.76 nM
- CC50 (DU-145): 12000 nM
- IC (TGI) (DU-145): 22 nM
- GI50 (HeLa-APL): 13.3 nM
- CC50 (HeLa-APL): 459 nM
- IC (TGI) (HeLa-APL): 143 nM
- GI50 (IGROV-1): 6.56 nM
- CC50 (IGROV-1): 3370 nM
- IC (TGI) (IGROV-1): 39.4 nM
- GI50 (SK-MEL-28): 15.5 nM
- CC50 (SK-MEL-28): 83.9 nM
- IC (TGI) (SK-MEL-28): 36.1 nM

Structure (SMILES): C=CCN1[C@@H]2c3c(cc(C)c(OC)c3O)C[C@H]1[C@H](C#N)N1C2[C@@H]2SC[C@]3(NCCc4c3[nH]c3ccc(OC)cc43)C(=O)OC[C@H]1c1c3c(c(C)c(OC(C)=O)c12)OCO3 (stereo partly drawn) [compound 56]
- GI50 (A-549): 30.2 nM
- CC50 (A-549): 705 nM
- IC (TGI) (A-549): 68.7 nM
- GI50 (HT-29): 48.8 nM
- CC50 (HT-29): 12000 nM
- IC (TGI) (HT-29): 571 nM
- GI50 (LoVo): 23 nM
- CC50 (LoVo): 101 nM
- IC (TGI) (LoVo): 48.2 nM
- GI50 (LNCaP): 12.2 nM
- CC50 (LNCaP): 67.7 nM
- IC (TGI) (LNCaP): 28.8 nM
- GI50 (SK-BR-3): 5.71 nM
- CC50 (SK-BR-3): 422 nM
- IC (TGI) (SK-BR-3): 18.6 nM
- GI50 (IGROV-ET): 40.2 nM
- CC50 (IGROV-ET): 12000 nM
- IC (TGI) (IGROV-ET): 79.7 nM
- GI50 (HeLa): 27.1 nM
- CC50 (HeLa): 104 nM
- IC (TGI) (HeLa): 53.1 nM
- GI50 (K-562): 6.89 nM
- CC50 (K-562): 12000 nM
- IC (TGI) (K-562): 86.8 nM
- GI50 (PANC-1): 90.2 nM
- CC50 (PANC-1): 12000 nM
- IC (TGI) (PANC-1): 953 nM
- GI50 (LoVo-Dox): 333 nM
- CC50 (LoVo-Dox): 12000 nM
- IC (TGI) (LoVo-Dox): 1330 nM
- GI50 (DU-145): 41 nM
- CC50 (DU-145): 12000 nM
- IC (TGI) (DU-145): 101 nM
- GI50 (HeLa-APL): 25.9 nM
- CC50 (HeLa-APL): 204 nM
- IC (TGI) (HeLa-APL): 58.3 nM
- GI50 (IGROV-1): 34.2 nM
- CC50 (IGROV-1): 1060 nM
- IC (TGI) (IGROV-1): 69.3 nM
- GI50 (SK-MEL-28): 26.3 nM
- CC50 (SK-MEL-28): 91.4 nM
- IC (TGI) (SK-MEL-28): 49 nM
